Assay results taken from US9221808B2, “Pyridylthiazole-based ureas as inhibitors of Rho associated protein kinase (ROCK) and methods of use” (H. Lee Moffitt Cancer Center and Research Institute, Inc., priority 2010, dated 2015).
Where a name gives a salt, the structure may show the parent alone.

How the values were obtained:
ROCK2 = ROCK2 (Homo sapiens (Human), UniProt O75116); test: FRET-based Z'-Lyte kinase assay, ROCK2; format: biochemical; details: read-out: IC50 ± SD (μM) ROCK2;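 note: kinase phosphorylates a coumarin/fluorescein FRET peptide, then a protease cleaves unphosphorylated peptide, read as donor/acceptor emission ratio after 400 nm excitation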
Sequence of ROCK2 (O75116 whole entry, species assumed): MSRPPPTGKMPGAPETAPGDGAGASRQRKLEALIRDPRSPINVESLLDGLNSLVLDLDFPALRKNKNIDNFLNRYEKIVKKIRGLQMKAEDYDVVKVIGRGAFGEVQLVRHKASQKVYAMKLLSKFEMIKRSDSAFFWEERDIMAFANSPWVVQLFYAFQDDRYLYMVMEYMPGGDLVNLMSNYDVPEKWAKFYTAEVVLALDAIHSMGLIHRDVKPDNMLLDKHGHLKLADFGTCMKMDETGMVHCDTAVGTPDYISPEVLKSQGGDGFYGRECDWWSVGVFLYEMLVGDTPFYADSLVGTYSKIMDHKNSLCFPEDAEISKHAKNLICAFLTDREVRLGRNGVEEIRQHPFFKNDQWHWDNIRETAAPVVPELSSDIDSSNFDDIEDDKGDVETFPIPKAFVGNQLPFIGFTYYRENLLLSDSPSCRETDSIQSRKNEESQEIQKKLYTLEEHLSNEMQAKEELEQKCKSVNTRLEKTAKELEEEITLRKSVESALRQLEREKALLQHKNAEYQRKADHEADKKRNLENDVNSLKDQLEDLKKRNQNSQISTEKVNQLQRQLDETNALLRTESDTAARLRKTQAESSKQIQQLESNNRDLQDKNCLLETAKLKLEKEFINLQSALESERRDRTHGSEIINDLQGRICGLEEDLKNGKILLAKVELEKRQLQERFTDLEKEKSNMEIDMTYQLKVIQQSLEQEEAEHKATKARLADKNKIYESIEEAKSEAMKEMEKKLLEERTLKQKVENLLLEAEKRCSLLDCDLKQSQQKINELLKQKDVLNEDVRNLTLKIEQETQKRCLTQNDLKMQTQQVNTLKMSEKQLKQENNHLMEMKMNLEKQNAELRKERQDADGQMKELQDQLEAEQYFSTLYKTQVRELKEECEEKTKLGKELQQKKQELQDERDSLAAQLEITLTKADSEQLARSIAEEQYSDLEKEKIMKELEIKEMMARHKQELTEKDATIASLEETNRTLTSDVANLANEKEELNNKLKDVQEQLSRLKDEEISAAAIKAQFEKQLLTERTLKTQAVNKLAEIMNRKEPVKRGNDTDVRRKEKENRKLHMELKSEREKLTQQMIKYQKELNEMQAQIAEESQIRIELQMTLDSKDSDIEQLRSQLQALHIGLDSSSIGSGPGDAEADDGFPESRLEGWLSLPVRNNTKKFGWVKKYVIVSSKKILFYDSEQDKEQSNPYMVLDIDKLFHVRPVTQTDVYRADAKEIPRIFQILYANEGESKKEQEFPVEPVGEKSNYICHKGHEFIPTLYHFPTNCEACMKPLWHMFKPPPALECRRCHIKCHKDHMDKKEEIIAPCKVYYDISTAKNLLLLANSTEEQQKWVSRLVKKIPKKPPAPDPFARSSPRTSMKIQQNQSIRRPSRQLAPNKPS
Excerpt: A) In the primary reaction, the Rho kinases phosphorylates a single serine or threonine residue in a synthetic FRET-peptide. This FRET-peptide is doubly labeled with a fluorophore at each end—coumarin (the FRET donor) on one end and fluorescein (the FRET acceptor) on the other—and also contains a single phosphorylation site which either overlaps with or lies adjacent to the proteolytic site. B) In the secondary reaction, a site-specific protease recognizes and cleaves the non-phosphorylated FRET-peptide. Cleavage disrupts FRET between the donor and acceptor fluorophores on the FRET-peptide, whereas uncleaved, phosphorylated FRET-peptides maintain FRET. Kinases phosphorylated FRET-peptides cannot be cleaved by the protease. […] Cleavage disrupts FRET and causes a decrease in the fluorescein fluorescence signal and a strong increase in the coumarin fluorescence signal. Therefore the extension of the phosphprylation can be measured by FRET-signal remaining the protease reaction. The assay uses a ratiometric method, which calculates the ratio of donor emission to acceptor emission (the emission ratio) after excitation of the donor fluorophore at 400 nm, to quantitate reaction progress.
All compounds were systematically screened against ROCK1 and ROCK2.

ROCK1 = ROCK1 (Homo sapiens (Human), UniProt Q13464); test: FRET-based Z'-Lyte kinase assay, ROCK1; format: biochemical; details: for IC50: read-out: IC50 ± SD (μM) ROCK1; for fold decrease in activity compared to 1bo: comparator 1bo (comparator for 1bn not stated); for fold decrease in ROCK1 activity/potency compared to parent compound 1aa: comparator 1aa; for fold loss of potency compared to 1at: comparator 1at;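 for all read-outs here: kinase phosphorylates a coumarin/fluorescein-labelled FRET peptide, then a protease cleaves unphosphorylated peptide, progress read as donor to acceptor emission ratio after 400 nm excitation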
Sequence of ROCK1 (Q13464 whole entry, species assumed): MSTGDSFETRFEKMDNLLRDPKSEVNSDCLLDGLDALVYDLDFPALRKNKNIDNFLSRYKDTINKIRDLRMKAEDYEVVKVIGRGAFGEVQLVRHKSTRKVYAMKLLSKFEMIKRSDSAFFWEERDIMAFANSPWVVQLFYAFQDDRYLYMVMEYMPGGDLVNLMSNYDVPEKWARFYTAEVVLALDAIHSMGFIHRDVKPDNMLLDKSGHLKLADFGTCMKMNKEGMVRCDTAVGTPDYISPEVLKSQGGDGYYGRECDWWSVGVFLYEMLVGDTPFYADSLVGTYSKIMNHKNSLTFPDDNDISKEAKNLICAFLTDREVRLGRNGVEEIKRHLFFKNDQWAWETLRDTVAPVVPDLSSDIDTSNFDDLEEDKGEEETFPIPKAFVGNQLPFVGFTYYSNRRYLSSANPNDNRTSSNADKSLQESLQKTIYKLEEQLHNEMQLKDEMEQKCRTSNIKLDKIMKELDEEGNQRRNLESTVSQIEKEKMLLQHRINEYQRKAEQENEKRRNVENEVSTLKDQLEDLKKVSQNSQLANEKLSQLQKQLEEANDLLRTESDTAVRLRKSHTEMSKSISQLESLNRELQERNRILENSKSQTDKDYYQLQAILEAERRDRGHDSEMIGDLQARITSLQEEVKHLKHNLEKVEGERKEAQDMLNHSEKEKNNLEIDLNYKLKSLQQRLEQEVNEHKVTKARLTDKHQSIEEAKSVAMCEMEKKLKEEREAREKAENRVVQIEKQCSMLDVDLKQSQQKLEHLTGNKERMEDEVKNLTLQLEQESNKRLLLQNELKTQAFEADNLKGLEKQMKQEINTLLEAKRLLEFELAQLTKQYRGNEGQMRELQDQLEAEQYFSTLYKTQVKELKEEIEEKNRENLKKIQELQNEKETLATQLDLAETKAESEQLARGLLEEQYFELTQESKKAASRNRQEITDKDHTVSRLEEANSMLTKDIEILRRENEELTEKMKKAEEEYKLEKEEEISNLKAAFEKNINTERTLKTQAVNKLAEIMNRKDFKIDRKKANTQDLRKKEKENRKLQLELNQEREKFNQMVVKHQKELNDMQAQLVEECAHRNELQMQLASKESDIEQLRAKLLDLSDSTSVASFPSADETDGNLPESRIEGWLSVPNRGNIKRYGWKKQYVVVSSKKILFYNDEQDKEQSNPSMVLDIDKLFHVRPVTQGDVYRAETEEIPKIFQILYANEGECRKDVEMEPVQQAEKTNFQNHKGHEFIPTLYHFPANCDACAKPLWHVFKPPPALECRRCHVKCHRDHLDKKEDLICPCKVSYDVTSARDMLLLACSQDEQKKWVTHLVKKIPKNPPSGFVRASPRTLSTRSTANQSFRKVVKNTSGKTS

Work on `O=C(NCc1ccc(O)cc1)Nc1nc(-c2ccncc2)cs1` [Compound 1ax, 1-(4-Hydroxybenzyl)-3-(4-(pyridin-4-yl)thiazol-2-yl)urea] yielded an IC50 (ROCK2) of 0.14 ± 0.029 µM and an IC50 (ROCK1) of 0.38 ± 0.046 µM.

For `Nc1cccc(CNC(=O)Nc2nc(-c3ccncc3)cs2)c1` [Compound 1ay, 1-(3-Aminobenzyl)-3-(4-(pyridin-4-yl)thiazol-2-yl)urea], the IC50 (ROCK2) was 0.02 ± 0.008 µM, the “fold decrease in activity compared to 1bo” value (ROCK1) was 6 fold and the IC50 (ROCK1) was 0.05 ± 0.009 µM.

In the case of `Cc1cccc(CNC(=O)Nc2nc(-c3ccncc3)cs2)c1` [Compound 1ba, 1-(3-Methylbenzyl)-3-(4-(pyridin-4-yl)thiazol-2-yl)urea], the IC50 (ROCK2) is reported as 0.12 ± 0.03 µM, the “fold decrease in ROCK1 activity/potency compared to parent compound 1aa” value (from here on “fold decrease in ROCK1 activity/potency”) (ROCK1) is reported as 3 fold and the IC50 (ROCK1) is reported as 0.46 ± 0.08 µM.

For `COc1cccc(CNC(=O)Nc2nc(-c3ccncc3)cs2)c1OC` [Compound 1bc, 1-(2,3-Dimethoxybenzyl)-3-(4-(pyridin-4-yl)thiazol-2-yl)urea], the IC50 (ROCK2) was 19.7 ± 2.94 µM and the IC50 (ROCK1) was 35.4 ± 6.78 µM.

`Cc1ccc(CNC(=O)Nc2nc(-c3ccncc3)cs2)cc1` [Compound 1bd, 1-(4-Methylbenzyl)-3-(4-(pyridin-4-yl)thiazol-2-yl)urea] showed an IC50 (ROCK2) of 2.05 ± 0.15 µM and an IC50 (ROCK1) of 5.16 ± 0.51 µM.

For `CC[C@@H](NC(=O)Nc1nc(-c2ccncc2)cs1)c1ccccc1` [Compound 1be, (R)-1-(1-Phenylpropyl)-3-(4-(pyridin-4-yl)thiazol-2-yl)urea], the IC50 (ROCK2) was 0.03 ± 0.01 µM, the “fold decrease in ROCK1 activity/potency” value (ROCK1) was 3.5 fold and the “fold more potent/active than its enantiomer” value (ROCK1; comparator: enantiomer (1ai for 1ah, 1bf for 1be)) was 745 fold. The IC50 (ROCK1) was 0.09 ± 0.02 µM.

In the case of `CC[C@H](NC(=O)Nc1nc(-c2ccncc2)cs1)c1ccccc1` [Compound 1bf, (S)-1-(1-Phenylpropyl)-3-(4-(pyridin-4-yl)thiazol-2-yl)urea], the IC50 (ROCK2) is reported as 22 ± 7.79 µM and the IC50 (ROCK1) is reported as 52.2 ± 3.64 µM.

`COc1cccc([C@H](C)NC(=O)Nc2nc(-c3ccncc3)cs2)c1` [Compound 1bg, (S)-1-(1-(3-Methoxyphenyl)ethyl)-3-(4-(pyridin-4-yl)thiazol-2-yl)urea] was tested, and the IC50 (ROCK2) was 3.25 ± 0.96 µM and the IC50 (ROCK1) was 18.7 ± 2.09 µM.

With `O=C(Nc1nc(-c2ccncc2)cs1)NC(c1ccccc1)c1ccccc1` [Compound 1bi, 1-Benzhydryl-3-(4-(pyridin-4-yl)thiazol-2-yl)urea] the IC50 (ROCK2) was 0.53 ± 0.1 µM, the “fold decrease in ROCK1 activity/potency” value (ROCK1) was 12 fold and the IC50 (ROCK1) was 1.87 ± 0.54 µM.

In the case of `COC[C@@H](NC(=O)Nc1nc(-c2ccncc2)cs1)c1ccccc1` [Compound 1bj, (S)-1-(2-Methoxy-1-phenylethyl)-3-(4-(pyridin-4-yl)thiazol-2-yl)urea], the IC50 (ROCK2) is reported as 0.03 ± 0.009 µM, the “fold loss of potency compared to 1at” value (ROCK1) is reported as 3.5 fold and the IC50 (ROCK1) is reported as 0.07 ± 0.005 µM.

Work on `COC[C@H](NC(=O)Nc1nc(-c2ccncc2)cs1)c1ccccc1` [Compound 1bk, (R)-1-(2-Methoxy-1-phenylethyl)-3-(4-(pyridin-4-yl)thiazol-2-yl)urea] yielded an IC50 (ROCK2) of 11.5 ± 1.24 µM and an IC50 (ROCK1) of 29.5 ± 3.28 µM.

For `Nc1ccc(CNC(=O)Nc2nc(-c3ccncc3)cs2)cc1` [Compound 1bl, 1-(4-Aminobenzyl)-3-(4-(pyridin-4-yl)thiazol-2-yl)urea], the IC50 (ROCK2) was 17.4 ± 3.79 µM and the IC50 (ROCK1) was 45.9 ± 5.15 µM.

`COCCOc1cccc(CNC(=O)Nc2nc(-c3ccncc3)cs2)c1` [Compound 1bm, 1-(3-(2-Methoxyethoxy)benzyl)-3-(4-(pyridin-4-yl)thiazol-2-yl)urea] showed an IC50 (ROCK2) of 0.24 ± 0.03 µM and an IC50 (ROCK1) of 0.5 ± 0.05 µM.

For `O=C(NCc1cccc2[nH]ccc12)Nc1nc(-c2ccncc2)cs1` [Compound 1bn, 1-((1H-indol-4-yl)methyl)-3-(4-(pyridin-4-yl)thiazol-2-yl)urea], the IC50 (ROCK2) was 31.1 ± 9.14 µM, the “fold decrease in activity compared to 1bo” value (ROCK1) was 470 fold and the IC50 (ROCK1) was 37.8 ± 7.81 µM.

`O=C(NCc1ccccc1O)Nc1nc(-c2ccncc2)cs1` [Compound 1bp, 1-(2-Hydroxybenzyl)-3-(4-(pyridin-4-yl)thiazol-2-yl)urea] gave an IC50 (ROCK2) of 0.28 ± 0.05 µM and an IC50 (ROCK1) of 0.62 ± 0.019 µM.

For `CNc1cccc(CNC(=O)Nc2nc(-c3ccncc3)cs2)c1` [Compound 1bq, 1-(3-(Methylamino)benzyl)-3-(4-(pyridin-4-yl)thiazol-2-yl)urea], the IC50 (ROCK2) was 0.24 ± 0.04 µM and the IC50 (ROCK1) was 0.47 ± 0.013 µM.

`O=C(NCc1cccc(OC(F)F)c1)Nc1nc(-c2ccncc2)cs1` [Compound 1bs, 1-(3-(Difluoromethoxy)benzyl)-3-(4-(pyridin-4-yl)thiazol-2-yl)urea] was tested, and the IC50 (ROCK2) was 0.35 ± 0.08 µM and the IC50 (ROCK1) was 0.92 ± 0.1 µM.

`Cc1ccccc1CNC(=O)Nc1nc(-c2ccncc2)cs1` [Compound 1bt, 1-(2-Methylbenzyl)-3-(4-(pyridin-4-yl)thiazol-2-yl)urea] was tested, and the IC50 (ROCK2) was 0.12 ± 0.02 µM and the IC50 (ROCK1) was 0.15 ± 0.03 µM.

`CC(C)Oc1cccc(CNC(=O)Nc2nc(-c3ccncc3)cs2)c1` [Compound 1bu, 1-(3-Isopropoxybenzyl)-3-(4-(pyridin-4-yl)thiazol-2-yl)urea] gave an IC50 (ROCK2) of 3.44 ± 0.87 µM and an IC50 (ROCK1) of 13 ± 1.38 µM.

`NC(=O)[C@H](NC(=O)Nc1nc(-c2ccncc2)cs1)c1ccccc1` [Compound 1bv, (R)-2-Phenyl-2-(3-(4-(pyridin-4-yl)thiazol-2-yl)ureido)acetamide] gave an IC50 (ROCK2) of 2.1 ± 0.36 µM and an IC50 (ROCK1) of 3.7 ± 0.5 µM.

Compound `CCOc1cccc(CNC(=O)Nc2nc(-c3ccncc3)cs2)c1` [Compound 1bw, 1-(3-ethoxybenzyl)-3-(4-(pyridin-4-yl)thiazol-2-yl)urea] has an IC50 (ROCK2) of 0.29 ± 0.17 µM and an IC50 (ROCK1) of 2.14 ± 0.62 µM.

`CCCOc1cccc(CNC(=O)Nc2nc(-c3ccncc3)cs2)c1` [Compound 1bx, 1-(3-propoxybenzyl)-3-(4-(pyridin-4-yl)thiazol-2-yl)urea] gave an IC50 (ROCK2) of 0.68 ± 0.43 µM and an IC50 (ROCK1) of 3.36 ± 1 µM.

With `COc1ccc([C@@H](C)NC(=O)Nc2nc(-c3ccncc3)cs2)cc1` [Compound 1bz, (R)-1-(1-(4-methoxyphenyl)ethyl)-3-(4-(pyridin-4-yl)thiazol-2-yl)urea] the IC50 (ROCK2) was 11.9 ± 4.69 µM and the IC50 (ROCK1) was greater than 50 µM.

`CC(NC(=O)Nc1nc(-c2ccncc2)cs1)c1cccc(F)c1` (stereo not shown) [Compound 1ca, 1-(1-(3-fluorophenyl)ethyl)-3-(4-(pyridin-4-yl)thiazol-2-yl)urea] gave an IC50 (ROCK2) of 0.28 ± 0.13 µM and an IC50 (ROCK1) of 0.43 ± 0.13 µM.

`C[C@@H](NC(=O)Nc1nc(-c2ccncc2)cs1)c1cccc(Cl)c1` [Compound 1cb, (R)-1-(1-(3-chlorophenyl)ethyl)-3-(4-(pyridin-4-yl)thiazol-2-yl)urea] was tested, and the IC50 (ROCK2) was 0.07 ± 0.02 µM and the IC50 (ROCK1) was 0.55 ± 0.32 µM.

For `C[C@@H](NC(=O)Nc1nc(-c2ccncc2)cs1)c1cccc(F)c1` [Compound 1cc, (R)-1-(1-(3-fluorophenyl)ethyl)-3-(4-(pyridin-4-yl)thiazol-2-yl)urea], the IC50 (ROCK2) was 0.03 ± 0.01 µM, the “fold less potent than 1ah” value (ROCK1; comparator 1ah) was 3 fold and the IC50 (ROCK1) was 0.11 ± 0.01 µM.

For `O=C(NCc1cc(F)cc(F)c1)Nc1nc(-c2ccncc2)cs1` [Compound 1cd, 1-(3,5-difluorobenzyl)-3-(4-(pyridin-4-yl)thiazol-2-yl)urea], the IC50 (ROCK2) was 0.96 ± 0.56 µM and the IC50 (ROCK1) was 4.07 ± 2.76 µM.

For `C[C@H](NC(=O)Nc1nc(-c2ccncc2)cs1)c1cccc(F)c1` [Compound 1cf, (S)-1-(1-(3-fluorophenyl)ethyl)-3-(4-(pyridin-4-yl)thiazol-2-yl)urea], the IC50 (ROCK2) was 11 ± 6.74 µM and the IC50 (ROCK1) was 30 ± 10 µM.

Work on `CS(=O)(=O)Nc1cccc(CNC(=O)Nc2nc(-c3ccncc3)cs2)c1` [Compound 1ch, N-(3-β3-(4-(pyridin-4-yl)thiazol-2-yl)ureido)methyl)phenyl)-methanesulfonamide hydrochloride] yielded an IC50 (ROCK2) of 0.1 ± 0.03 µM and an IC50 (ROCK1) of 0.56 ± 0.1 µM.

Work on `CC(=O)Nc1cccc(CNC(=O)Nc2nc(-c3ccncc3)cs2)c1` [Compound 1ci, N-(3-((3-(4-(pyridin-4-yl)thiazol-2yl)ureido)methyl)phenyl)acetamide hydrochloride] yielded an IC50 (ROCK2) of 0.13 ± 0.02 µM and an IC50 (ROCK1) of 1.25 ± 0.21 µM.

`NC(=O)Nc1cccc(CNC(=O)Nc2nc(-c3ccncc3)cs2)c1` [Compound 1cj, hydrochloride] showed an IC50 (ROCK2) of 0.18 ± 0.04 µM and an IC50 (ROCK1) of 1.15 ± 0.39 µM.

With `COc1ccc(CNC(=O)Nc2nc(-c3ccncc3)cs2)cc1OC` [Compound 1ck, 1-(3,4-Dimethoxybenzyl)-3-(4-(pyridin-4-yl)thiazol-2-yl)urea] the IC50 (ROCK2) was 25 ± 1.01 µM and the IC50 (ROCK1) was 45.1 ± 5.57 µM.

In the case of `CC(C)(NC(=O)Nc1nc(-c2ccncc2)cs1)c1ccccc1` [Compound 1cl, 1-(2-Phenylpropan-2-yl)-3-(4-(pyridin-4-yl)thiazol-2-yl)urea], the IC50 (ROCK2) is reported as 0.07 ± 0.02 µM and the IC50 (ROCK1) is reported as 0.19 ± 0.04 µM.

Compound `COc1cccc(CN(C)C(=O)Nc2nc(-c3ccncc3)cs2)c1` [Compound 1cm, 1-(3-Methoxybenzyl)-1-methyl-3-(4-(pyridin-4-yl)thiazol-2-yl)urea] has an IC50 (ROCK2) of 0.015 ± 0.004 µM and an IC50 (ROCK1) of 0.04 ± 0.01 µM.

`C[C@H](c1ccccc1)N(C)C(=O)Nc1nc(-c2ccncc2)cs1` [Compound 1cn, (R)-1-Methyl-1-(1-phenylethyl)-3-(4-(pyridin-4-yl)thiazol-2-yl)urea] showed an IC50 (ROCK2) of 0.047 ± 0.018 µM and an IC50 (ROCK1) of 0.12 ± 0.04 µM.

Compound `C[C@@H](c1ccccc1)N(C)C(=O)Nc1nc(-c2ccncc2)cs1` [Compound 1co, (S)-1-Methyl-1-(1-phenylethyl)-3-(4-(pyridin-4-yl)thiazol-2-yl)urea] has an IC50 (ROCK2) of 2.67 ± 0.89 µM and an IC50 (ROCK1) of 6.44 ± 1.67 µM.

With `NC(=O)[C@@H](NC(=O)Nc1nc(-c2ccncc2)cs1)c1ccccc1` [Compound 1cp, (S)-2-Phenyl-2-(3-(4-(pyridin-4-yl)thiazol-2-yl)ureido)acetamide] the IC50 (ROCK2) was 0.04 ± 0.016 µM, the “fold loss of potency compared to 1at” value (ROCK1) was 11 fold and the IC50 (ROCK1) was 0.08 ± 0.01 µM.

In the case of `O=C(Nc1nc(-c2ccncc2)cs1)N1CCc2ccccc2C1` [Compound 1cq, N-(4-(Pyridin-4-yl)thiazol-2-yl)-3,4-dihydroisoquinoline-2(1H)-carboxamide], the IC50 (ROCK2) is reported as 1.95 ± 0.389 µM and the IC50 (ROCK1) is reported as 3.87 ± 0.351 µM.

In the case of `O=C(Nc1nc(-c2ccncc2)cs1)N[C@@H]1CCc2ccccc21` [Compound 1ct, (R)-1-(2,3-Dihydro-1H-inden-1-yl)-3-(4-(pyridin-4-yl)thiazol-2-yl)urea], the IC50 (ROCK2) is reported as 52.5 ± 1.75 µM and the IC50 (ROCK1) is reported as 28.2 ± 1.84 µM.

Compound `O=C(Nc1nc(-c2ccncc2)cs1)N[C@H]1CCc2ccccc21` [Compound 1cu, (S)-1-(2,3-Dihydro-1H-inden-1-yl)-3-(4-(pyridin-4-yl)thiazol-2-yl)urea] has an IC50 (ROCK2) of 1.83 ± 0.56 µM and an IC50 (ROCK1) of 3.21 ± 0.9 µM.

In the case of `O=C(Nc1nc(-c2ccncc2)cs1)N[C@@H]1CCCc2ccccc21` [Compound 1cv, (R)-1-(4-(Pyridin-4-yl)thiazol-2-yl)-3-(1,2,3,4-tetrahydronaphthalen-1-yl)urea], the IC50 (ROCK2) is reported as 3.82 ± 1.53 µM and the IC50 (ROCK1) is reported as 6.99 ± 1.61 µM.
